According to patent US11707440B2 (priority 2017, dated 2023):
Where two headings read alike, the source gives them in different places. Marks after values point to notes of the source that are not given here.

Assays:
[1] = for Stock solution stability: stock solutions
Description: This example provides an LC-MS/MS method for the determination of ketamine and norketamine in sodium heparin human plasma using ketamine-d4 and norketamine-d4 as the respective internal standards (IS).

MDD/TRD subjects = conditions: 52-week safety study in MDD/TRD subjects (Berman et al., 2011); cited from earlier work
[2] = Pharmacokinetics of intranasal esketamine in healthy subjects (Example 9); conditions: for Metabolite/Parent Ratio AUClast / Metabolite/Parent Ratio AUC∞ / Metabolite/Parent Ratio tmax / AUClast / AUC∞ / Cmax / t1/2: mean; for tmax: median
Method: Pharmacokinetic blood samples for measurement of esketamine and noresketamine concentrations in plasma were collected from predose until up to 24 hours after each intranasal esketamine regimen on Day 1 of each period.
Blood samples (4 mL each) for determination of esketamine and noresketamine plasma concentrations were collected into the appropriate collection tube (e.g., Vacutainer®) at timepoints 0.00, 0.12, 0.20, 0.37, 0.53, 0.67, 0.83, 1.00, 1.25, 1.50, 2.00, 3.00, 4.00, 6.00, 9.00, 12.00, 18.00, and 24.00 h. The total amount of blood to be drawn for clinical laboratory tests and PK evaluations is approximately 327 mL.
Plasma samples were analyzed for esketamine and noresketamine concentrations using the validated, specific and sensitive liquid chromatography coupled to tandem mass spectrometry (LC-MS/MS) achiral method of Example 8.
Serial PK blood samples (4 mL each) were collected for a 24-hour period from each subject (Periods 1, 2, and 3). […] Statistical Methods 1.6.4.1. Sample Size
The following key parameters of esketamine and noresketamine in plasma were calculated using noncompartmental methods and actual sampling times: Cmax, tmax, AUClast, AUC∞, t1/2,λ, and λz.

[3] = after A: Esketamine 28 mg intranasal
[4] = after B: Esketamine 56 mg intranasal
[5] = after C: Esketamine 84 mg intranasal
[6] = healthy subjects, 28, 56 and 84 mg
[7] = metabolite after A: Esketamine 28 mg intranasal
[8] = metabolite after B: Esketamine 56 mg intranasal
[9] = metabolite after C: Esketamine 84 mg intranasal

## NC1(c2ccccc2Cl)CCCCC1=O (stereo not drawn) [Norketamine]
[1]; freeze (−20° C.)/thaw (ice-water bath)
  QC sample freeze/thaw stability: 3 freeze (−20° C.)/thaw (ice-water bath) cycles
[1]; freeze (−20° C.)/thaw (room temperature)
  QC sample freeze/thaw stability: 3 freeze (−20° C.)/thaw (room temperature) cycles
[1]; human plasma, room temperature
  QC sample bench-top stability: 68.5 hours at room temp
[1]; human plasma, −20° C.
  QC sample long-term storage stability: 1552 days at −20 °C
[1]; room temperature
  Processed sample stability: 146.5 hours at room temperature
[1]; room temperature and ice-water bath (0-4° C.)
  Whole Blood Stability: 120 minutes at room temperature and in an ice-water bath
[1]; spike solutions, −20° C.
  Stock solution stability (spike solutions): 610 days at −20 °C for ketamine/norketamine spike solutions
[1]; room temperature under white light
  Stock solution stability: 6 h
[1]; −20° C.
  Stock solution stability: 15100 h

## OCCOCCN1CCN(C2=Nc3ccccc3Sc3ccccc32)CC1 [quetiapine]
MDD/TRD subjects
  Discontinuation rate due to adverse events: 23.7%

## CN[C@]1(c2ccccc2Cl)CCCCC1=O [5-Ketamine]
[1]; human plasma, −20° C.
  QC sample long-term storage stability: 707 days at −20 °C

## N[C@]1(c2ccccc2Cl)CCCCC1=O [noresketamine]
[2]; [3]
  Metabolite/Parent Ratio AUClast: 3.62
  Metabolite/Parent Ratio AUC∞: 3.80^b
  Metabolite/Parent Ratio tmax: 1.96 h
[2]; [4]
  Metabolite/Parent Ratio AUClast: 4.07
  Metabolite/Parent Ratio AUC∞: 4.22^b
  Metabolite/Parent Ratio tmax: 2.28 h
[2]; [5]
  Metabolite/Parent Ratio AUClast: 4.32
  Metabolite/Parent Ratio AUC∞: 4.46^d
  Metabolite/Parent Ratio tmax: 2.55 h
[2]; [6]
  AUC (AUClast and AUC∞) variability, range: 17.0% to 21.3
  AUClast, mean ratio of noresketamine to esketamine, range: 3.62 to 4.32
  AUC∞, mean ratio of noresketamine to esketamine, range: 3.80 to 4.46
  Cmax variability (percent coefficient of variation), range across treatment groups: 25.8% to 33.7
  Cmax, mean ratio of noresketamine to esketamine, range: 1.96 to 2.55
  Mean t1/2, range: 7.48 to 7.74 h
[2]; healthy subjects, 28, 56 and 84 mg intranasal esketamine
  Median tmax, range across the 3 intranasal regimens: 1.25 to 1.5 h
[2]; [7]
  AUClast: 0.454 µg·h/mL
  AUC∞: 508^ h * ng/mL
  Cmax: 0.0928 µg/mL
  t1/2: 7.74 h
  tmax: 1.25 h
[2]; [8]
  AUClast: 0.851 µg·h/mL
  AUC∞: 924^c h * ng/mL
  Cmax: 0.154 µg/mL
  t1/2: 7.71^c h
  tmax: 1.50 h
[2]; [9]
  AUClast: 1.287 µg·h/mL
  AUC∞: 1392^b h * ng/mL
  Cmax: 0.241 µg/mL
  t1/2: 7.48^b h
  tmax: 1.50 h
